Data published in US8609723B2 (Beijing Dingguochangsheng Biotech., Co., Ltd., priority 2008, dated 2013).

What was measured:
[1] = tested on: 5-HT, NA, DA and metabolites thereof in hippocampus; assay: Detection of monoamine and metabolites thereof in brains of mice; assay type: in vivo; conditions: 18.4 mg/kg
Description: Hippocampus was collected immediately on ice, weighed, put into an Eppendorf tube and kept in refrigeratory at −80° C. To each 100 mg brain tissue, 200 μl ice-cooled Solution A (0.4 mol/L HCLO4) was added. The mixture was homogenized ultrasonically in a ice bath, kept in dark at 4° C. for 60 min, and centrifuged for 20 min (12,000 rpm, 4° C.). […] The mixture was vortexed thoroughly for 10 min, kept at 4° C. in dark for 60 min, and centrifuged again for 20 min (12,000 rpm, 4° C.). The supernatant was collected and measured for the content of monoamine. The contents of 5-HT, NA, DA, 5-HIAA and DOPAC in brain tissue were determined by High Effective Liquid Phase Electrochemistry. […] The contents of monoamine and metabolites thereof in brain tissue were shown as ng/g wet tissue weight.

[2] = tested on: chronically stressed rats; assay: Forced swimming test of rats (chronic stress model); assay type: in vivo; conditions: vs model control group
Text: (§1) The rats in the normal control group were raised normally under a condition without any stimulation except for weighing body weight, measuring body temperature, and subjected to sugar test. All of other groups were subjected to stimulations of same type and same strength. During the experiment, different types of stimulations were applied in an unpredictable manner, and the same type of stimulation was enhanced each time.
(§2) The chronic stress course was 20 days in total, once per day, from 9:00 AM to 2:00 PM. The stress protocol was shown as follows: horizontally shaking at a high speed for 45 min; nipping tails (1 cm from the tail root): 1 min; depriving of water for 24 h; forbidding moving for 1.5 h; fasting for 24 h; stimulating with ice water (water temperature: 10° C.) for 5 min; electric shocking (1 mA, time course: is, 1 shock/min) the bottoms of feet for 30 min; changing cages and raising separately for 24 h; forbidding moving for 2 h; nipping tails (1 cm from the root of tail) for 1 min; depriving of water for 24 h; horizontally shaking at a high speed for 1.5 h; fasting for 24 h; nipping tails (1 cm from the tail root): 1 min; electric shocking (1 mA, time course: 1 s, 1 shock/min) the bottoms of feet for 40 min; stimulating with ice water for 5 min; changing cages and raising separately for 24 h; horizontally shaking at a high speed for 60 min; electric shocking (1 mA, time course: 1 s, 1 shock/min) the bottoms of feet for 50 min; depriving of water for 24 h; forbidding moving for 2.5 h; and 24 h social isolation.
Please see FIG. 7. 24 hours before the formal test, rats were placed into a round glass container (height: 40 cm, diameter: 18 cm) filled with water (depth: 23 cm) with a temperature of 24±1° C., and forced to conduct swim training for 15 min. […] The accumulative immobile time within the last 4 min was observed and recorded for each rat. The immobile time is intended to mean the period within which the rat stops to struggle, floats in the water and keeps immobile, or only makes a few slight movements that are necessary to keep its head floating on the surface of water.

serum corticosterone = assay: Determination of the content of serum corticosterone (chronic stress model); assay type: in vivo; conditions: stressed rats, day after 21-day stress
Text: as §1, §2
In this experiment, the content of serum corticosterone was measured by a competitive method, with its mechanism shown as follow: antigens in samples and enzyme-labeled antigens compete to bind antibodies in a solid phase. The more antigens exist in samples, the less enzyme-labeled antigens bind to the solid phase, thereby resulting in a fainter coloration.
On the next day after the end of the 21-day stress period, rats were sacrificed by decollation, and 5˜10 ml whole blood was collected. A portion of the collected whole blood was kept at room temperature for 20 min, followed by centrifugation at 1000 rpm for 10 min. Serum was then separated and stored at −80° C. The serum corticosterone detection kit was used for such detection.

HCT116 cells = assay: Antitumor experiment of tumor HCT116-bearing mice; assay type: in vivo; conditions: 7-day dosage by single administration, 7 days
Text: During the experiment, the mice were inoculated with HCT116 cells (×10^7) in armpits. […] Seven days later, the mice were sacrificed by decollation. The tumors were removed, and the mice and the tumors were weighed separately.

S-180 sarcoma cells = assay: Survival experiment of tumor-bearing mice; assay type: in vivo; conditions: S-180-bearing mice, 7-day dosage by single administration; 95% confidence interval 12.8~20.2 days
Description: During the experiment, the mice were inoculated with S-180 sarcoma cells (×10^5) in armpits, and the next day the administration begins. The survival rate was recorded for each group.

Esophageal cancer cell = assay: Inhibitory effect on tumor cells, MTT method; assay type: cell-based; conditions: 25 μM, 72 h
Description: (§3) The tumor cells with a stable passage feature, including Hela tumor cells, renal cancer cells, breast cancer cells, gastric cancer cells, rectal cancer cells, pulmonary cancer cells, hepatic cancer cells HepG2, prostate cancer cells, esophageal cancer cells, sarcoma cells, glioma cells, melanoma cells, lymphoma cells, and bladder cancer cells, were counted under a microscope (×10^4), and cultured in a 96-well plate under CO2 saturated water vapor for 24 h.

[3] = tested on: Gastric cancer cell MGC80-3; assay: Inhibitory effect on tumor cells, MTT method; assay type: cell-based; conditions: Gastric cancer cell MGC80-3, 25 μM, 72 h
Description: as §3

Glioma cell = assay: Inhibitory effect on tumor cells, MTT method; assay type: cell-based; conditions: 25 μM, 72 h
Description: as §3

Hela cell = assay: Inhibitory effect on tumor cells, MTT method; assay type: cell-based; conditions: 25 μM, 72 h
Description: as §3

Lymphoma cell = assay: Inhibitory effect on tumor cells, MTT method; assay type: cell-based; conditions: 25 μM, 72 h
Description: as §3

Melanoma cell = assay: Inhibitory effect on tumor cells, MTT method; assay type: cell-based; conditions: 25 μM, 72 h
Description: as §3

Prostate cancer cell = assay: Inhibitory effect on tumor cells, MTT method; assay type: cell-based; conditions: 25 μM, 72 h
Description: as §3

[4] = tested on: Pulmonary cancer cell A549; assay: Inhibitory effect on tumor cells, MTT method; assay type: cell-based; conditions: Pulmonary cancer cell A549, 25 μM, 72 h
Description: as §3

[5] = tested on: Rectal cancer cell HCT116; assay: Inhibitory effect on tumor cells, MTT method; assay type: cell-based; conditions: Rectal cancer cell HCT116, 25 μM, 72 h
Description: as §3

Renal cancer cell 7860 = assay: Inhibitory effect on tumor cells, MTT method; assay type: cell-based; conditions: Renal cancer cell 7860, 25 μM, 72 h
Description: as §3

Sarcoma cell = assay: Inhibitory effect on tumor cells, MTT method; assay type: cell-based; conditions: 25 μM, 72 h
Description: as §3

[6] = first line of group (Day 3 presumed)
[7] = second line of group (Day 7 presumed)

curcumin decanoate [long acting curcumin]
Hippocampus 5-HIAA [1, 6]: 183.4 ± 14.2 ng/g
Hippocampus 5-HIAA/5-HT [1, 6]: 0.25 ± 0.02
Hippocampus 5-HT [1, 6]: 713.1 ± 19.2 ng/g
Hippocampus DOPAC [1, 6]: 13.1 ± 2.0 ng/g
Hippocampus Dopamine [1, 6]: 20.3 ± 5.9 ng/g
Hippocampus Noradrenaline [1, 6]: 369.9 ± 12.3 ng/g
Hippocampus 5-HIAA [1, 7]: 186.3 ± 8.4 ng/g
Hippocampus 5-HIAA/5-HT [1, 7]: 0.25 ± 0.03
Hippocampus 5-HT [1, 7]: 725.0 ± 30.4 ng/g
Hippocampus DOPAC [1, 7]: 14.6 ± 2.1 ng/g
Hippocampus Dopamine [1, 7]: 21.2 ± 5.6 ng/g
Hippocampus Noradrenaline [1, 7]: 372.2 ± 21.6 ng/g
reduced the accumulative immobile time of the forced swimming test ([2]; 4.6 mg/kg once every 7 days): 37.6%
reduced the accumulative immobile time of the forced swimming test ([2]; 9.2 mg/kg once every 7 days): 49.4%
reduced the accumulative immobile time of the forced swimming test ([2]; 18.4 mg/kg once every 7 days): 58.9%
serum corticosterone (serum corticosterone; 4.6 mg/kg once every 7 days): 239.5 ± 33.7 nmol/L
serum corticosterone (serum corticosterone; 9.2 mg/kg once every 7 days): 222.9 ± 30.6 nmol/L
serum corticosterone (serum corticosterone; 18.4 mg/kg once every 7 days): 199.6 ± 28.0 nmol/L
inhibitory rate of tumors (HCT116 cells; high dosage group): 49.3%
inhibitory rate of tumors (HCT116 cells; low dosage group): 29.6%
inhibitory rate of tumors (HCT116 cells; medium dosage group): 58.4%
medium survival time (S-180 sarcoma cells): 17.5 days
Inhibitory rate (%) (Esophageal cancer cell): 35.5 ± 1.1%
Inhibitory rate (%) [3]: 42.6 ± 1.7%
Inhibitory rate (%) (Glioma cell): 58.8 ± 1.5%
Inhibitory rate (%) (Hela cell): 37.3 ± 2.4%
Inhibitory rate (%) (Lymphoma cell): 55.8 ± 1.7%
Inhibitory rate (%) (Melanoma cell): 49.9 ± 2.0. %
Inhibitory rate (%) (Prostate cancer cell): 39.7 ± 1.3%
Inhibitory rate (%) [4]: 35.9 ± 1.2%
Inhibitory rate (%) [5]: 58.9 ± 2.1%
Inhibitory rate (%) (Renal cancer cell 7860): 60.6%
Inhibitory rate (%) (Sarcoma cell): 45.5 ± 1.6%
